# Reference: patent US6858741B2, “Alkyl-dihalogenated phenyl-substituted ketoenols useful as pesticides and herbicides” (Bayer Aktiengesellschaft, priority 1995, dated 2005)
# Assays:
# Type in all cases: in vivo
# [1] = tested on: mustard beetle larvae (Phaedon cochleariae); test: Phaedon larvae test; details: after 7 days; active compound concentration 0.1%; dipped cabbage leaves
# Method: (§1) [table] To produce a suitable preparation of active compound, 1 part by weight of active compound is mixed with the stated amount of solvent and the stated amount of emulsifier, and the concentrate is diluted with water to the desired concentration. Cabbage leaves (Brassica oleracea) are treated by being dipped into the preparation of the active compound of the desired concentration and are infested with mustard beetle larvae (Phaedon cochleariae) while the leaves are still moist. After the specified period of time, the destruction in % is determined. 100% means that all the beetle larvae have been killed; 0% means that none of the beetle larvae have been killed.
# [2] = tested on: green rice leafhopper (Nephotettix cincticeps); test: Nephotettix test; details: after 6 days; active compound concentration 0.1%; dipped rice seedlings
# Method: [table] To produce a suitable preparation of active compound, 1 part by weight of active compound is mixed with the stated amount of solvent and the stated amount of emulsifier, and the concentrate is diluted with water to the desired concentration. Rice seedlings (Oryza sativa) are treated by being dipped into the preparation of active compound of the desired concentration and are infested with the green rice leafhopper (Nephotettix cincticeps) while the seedlings are still moist. After the specified period of time, the destruction in % is determined. 100% means that all the leafhoppers have been killed; 0% means that none of the leafhoppers have been killed.
# test plants = test: Pre-emergence test/greenhouse; details: greenhouse, 250 g/ha, rated after three weeks vs untreated control, 0%=no action, 100%=total destruction
# Method: [table] To produce a suitable preparation of active compound, 1 part by weight of active compound is mixed with the stated amount of solvent, the stated amount of emulsifier is added and the concentrate is diluted with water to the desired concentration. Seeds of the test plants are sown in normal soil and, after 24 hours, watered with the preparation of the active compound. It is expedient to keep constant the amount of water per unit area The concentration of the active compound in the preparation is of no importance, only the amount of active compound applied per unit area being decisive. After three weeks, the degree of damage to the plants is rated in % damage in comparison to the development of the untreated control. The figures denote: • 0%=no action (like untreated control) 100%=total destruction [table]
# [3] = tested on: caterpillars of the diamond-back moth (Plutella maculipennis); test: Plutella test; details: after 7 days; active compound concentration 0.1%; dipped cabbage leaves
# Method: as §1, with “preparation of active compound” for “preparation of the active compound”, “infested with caterpillars of the diamond-back moth (Plutella maculipennis) while the” for “infested with mustard beetle larvae (Phaedon cochleariae) while the”, “all the caterpillars have been” for “all the beetle larvae have been”, “of the caterpillars have been” for “of the beetle larvae have been”
# [4] = tested on: greenhouse red spider mite or two-spotted spider-mite (Tetranychus urticae); test: Tetranychus test (OP-resistant/immersion treatment); details: after 13 days; active compound concentration 0.1%; immersion treatment of bean plants
# Method: [table] To produce a suitable preparation of active compound, 1 part by weight of active compound is mixed with the stated amount of solvent and the stated amount of emulsifier, and the concentrate is diluted with water to the desired concentrations. Bean plants (Phaseolus vulgaris) which are severely infested with all development stages of the greenhouse red spider mite or two-spotted spider-mite (Tetranychus urticae) are immersed in a preparation of active compound of the desired concentration. After the specified period of time, the destruction in % is determined. 100% means that all the spider mites have been killed; 0% means that none of the spider mites have been killed.
Structure (SMILES),destruction [1] [%],destruction [2] [%],"degree of damage, Alopecurus myosuroides (test plants) [%]","degree of damage, Avena fatua (test plants) [%]","degree of damage, Beta vulgaris (test plants) [%]","degree of damage, Setaria viridis (test plants) [%]",destruction [3] [%],"degree of damage, Sinapis arvensis (test plants) [%]",activity (destruction) [4] [%],"degree of damage, Amaranthus (test plants) [%]"
"Cc1cc(Cl)cc(Cl)c1C1=C(O)C2(CCCC(C)C2)NC1=O (single isomer, unassigned) [Example I-1-a-2]",100,100,100,90,0,100,–,–,–,–
"Cc1cc(Cl)cc(Cl)c1C1=C(O)C2(CCC(C)CC2)NC1=O (single isomer, unassigned) [Example I-1-a-4]",–,100,100,100,0,100,100,95,–,–
"Cc1cc(Cl)c(C2=C(O)C3(CCC(C)CC3)NC2=O)c(Cl)c1 (single isomer, unassigned) [Example I-1-a-7]",–,100,100,90,–,100,100,100,100,–
"Cc1cc(Cl)c(C2=C(O)C3(CCCC(C)C3)NC2=O)c(Cl)c1 (single isomer, unassigned) [Example I-1-a-8]",100,100,100,40,–,100,–,100,–,–
"CC(=O)OC1=C(c2c(C)cc(Cl)cc2Cl)C(=O)NC12CCCC(C)C2 (single isomer, unassigned) [Example I-1-b-2]",–,–,100,80,0,100,100,70,–,–
"CCOCC(=O)OC1=C(c2c(C)cc(Cl)cc2Cl)C(=O)NC12CCCC(C)C2 (single isomer, unassigned) [Example I-1-b-4]",–,–,95,80,0,100,–,80,–,–
"CC(=O)OC1=C(c2c(C)cc(Cl)cc2Cl)C(=O)NC12CCC(C)CC2 (single isomer, unassigned) [Example I-1-b-10]",–,100,100,100,20,100,–,100,100,–
"Cc1cc(Cl)cc(Cl)c1C1=C(OC(=O)C(C)C)C2(CCC(C)CC2)NC1=O (single isomer, unassigned) [Example I-1-b-11]",–,–,95,40,30,100,–,90,–,–
"Cc1cc(Cl)cc(Cl)c1C1=C(OC(=O)c2ccc(Cl)cc2)C2(CCC(C)CC2)NC1=O (single isomer, unassigned) [Example I-1-b-12]",–,–,100,80,20,100,–,95,–,–
"COCC(C)C(=O)OC1=C(c2c(C)cc(Cl)cc2Cl)C(=O)NC12CCC(C)CC2 (single isomer, unassigned) [Example I-1-b-13]",–,–,100,80,30,100,–,90,–,–
"Cc1cc(Cl)c(C2=C(OC(=O)C(C)C)C3(CCCC(C)C3)NC2=O)c(Cl)c1 (single isomer, unassigned) [Example I-1-b-20]",–,–,95,–,30,90,–,80,–,–
"CCOC(=O)OC1=C(c2c(C)cc(Cl)cc2Cl)C(=O)NC12CCCC(C)C2 (single isomer, unassigned) [Example I-1-c-2]",–,–,–,–,–,–,100,–,–,–
"CCOC(=O)OC1=C(c2c(C)cc(Cl)cc2Cl)C(=O)NC12CCC(C)CC2 (single isomer, unassigned) [Example I-1-c-4]",–,100,100,100,50,100,–,100,100,–
"CCOC(=O)OC1=C(c2c(Cl)cc(C)cc2Cl)C(=O)NC12CCC(C)CC2 (single isomer, unassigned) [Example I-1-c-6]",–,–,100,100,–,100,–,95,–,–
"CCOC(=O)OC1=C(c2c(Cl)cc(C)cc2Cl)C(=O)NC12CCCC(C)C2 (single isomer, unassigned) [Example I-1-c-7]",–,–,100,80,0,100,–,80,–,–
"Cc1cc(Cl)cc(Cl)c1C1=C(OC(=O)OCC(C)C)C2(CCC(C)CC2)NC1=O (single isomer, unassigned) [Example I-1-c-13]",–,100,–,–,–,–,–,–,–,–
Cc1cc(Cl)cc(Cl)c1C1=C(O)C2(CCCCC2)NC1=O [Example I-1-a-3],–,100,100,–,0,100,100,80,–,–
Cc1cc(Cl)c(C2=C(O)C3(CCCCC3)NC2=O)c(Cl)c1 [Example I-1-a-9],100,100,–,–,–,–,–,–,–,–
Cc1cc(Cl)c(C2=C(O)C3(CCOCC3)NC2=O)c(Cl)c1 [Example I-1-a-10],100,–,–,–,–,–,–,–,100,–
Cc1cc(Cl)c(C2=C(O)C(C)(C(C)C)NC2=O)c(Cl)c1 (centres unmarked) [Example I-1-a-11],100,100,–,–,–,–,–,–,–,–
Cc1cc(Cl)cc(Cl)c1C1=C(OC(=O)C(C)C)C2(CCCCC2)NC1=O [Example I-1-b-8],–,–,95,50,0,100,–,100,–,–
CCOC(=O)OC1=C(c2c(C)cc(Cl)cc2Cl)C(=O)NC12CCCCC2 [Example I-1-c-3],–,100,80,80,30,100,–,100,–,–
CCC1(C)SC(=O)C(c2c(C)cc(Cl)cc2Cl)=C1O (centres unmarked) [Example I-3-a-1],100,–,–,–,–,–,100,–,–,–
Cc1cc(Cl)c(C2=C(O)C3(CCCCC3)SC2=O)c(Cl)c1 [Example I-3-a-2],100,100,–,–,0,–,–,–,100,60
Cc1cc(Cl)cc(Cl)c1C1=C(O)C2(CCCCC2)SC1=O [Example I-3-a-3],100,–,–,–,–,–,100,–,–,–
Cc1cc(Cl)c(C2=C(OC(=O)C(C)(C)C)C3(CCCCC3)SC2=O)c(Cl)c1 [Example I-3-b-1],–,100,–,–,–,–,100,–,100,–
Cc1cc(Cl)c(C2=C(OC(=O)OCC(C)C)C3(CCCCC3)SC2=O)c(Cl)c1 [Example I-3-c-1],–,–,–,–,0,–,–,–,100,70
Cc1cc(Cl)c(-c2c(O)c(C)c(C3CCCC3)oc2=O)c(Cl)c1 [I-5-a-7],–,–,80,–,0,–,–,95,–,–
